# Reference: patent US12629350B2, “Transthyretin tetramer stabilizing agent, and preventing agent or progression suppressing agent for transthyretin amyloidosis” (KANEKA CORPORATION, priority 2020, dated 2026)
# Target: T1, transthyretin tetramer (Homo sapiens, UniProt P02766)
# T1 construct: from tissue; host or cells: human serum from three middle-aged and older persons
# Test: Stabilization Test 1 of Transthyretin Tetramer (serum, urea denaturation, electrophoresis and Western blotting)
# Type: biochemical
# Settings: glabridin alone added at concentrations up to 50 μM
# Experimental: Serums were obtained from blood taken from three middle-aged and older persons. […] The resulting mixtures were incubated at 25° C. for 30 minutes, and then denatured with urea. Using these samples, the transthyretins (the tetramers, the dimers, and the monomers) in the serum were quantitated by electrophoresis and Western blotting. The stabilization effect was investigated using the ratio of the monomers (monomer) to the total amounts of the transthyretins (total) (monomer/total) and the ratio of the tetramers (tetramer) to the total amounts of the transthyretins (total) (tetramer/total). The analysis results of the monomer/total ratio are shown in the left of FIG. 1. The analysis results of the tetramer/total ratio are shown in the right of FIG. 1.
# [1] = serum of three middle-aged and older persons, 25° C. 30 minutes, then denatured with urea
smiles,measurement,setting,value
CC1(C)C=Cc2c(ccc3c2OC[C@@H](c2ccc(O)cc2O)C3)O1 [glabridin],ratio of the monomers to the total amounts of the transthyretins (monomer/total),[1],did not change
same,ratio of the tetramers to the total amounts of the transthyretins (tetramer/total),[1],did not increase
same,stabilization effect for the transthyretin,serum,not observed
